17 molecules from patent publication US9376442B2, “Methylpyrrolopyrimidinecarboxamides” (Takeda GmbH, priority 2009, dated 2016) can be followed below.

One test addresses T1, PDE4B1 (Homo sapiens, UniProt Q07343).
T1 construct: made in house; host or cells: SF21 insect cells (baculovirus; pCRBac vector), 1000 x g supernatant of homogenate
Kind of test: Inhibition of type 4 phosphodiesterase (PDE4) activity, modified SPA test with recombinant PDE4B1 expressed in SF21 insect cells. The settings on record: recombinant PDE4B1, 0.5 μM cAMP, read-out: PDE4B1 inhibitory values [measured as −log IC50 (mol/l)] (converted). It counts as biochemical. As to the method:
Method for Measuring Inhibition of the Type 4 Phosphodiesterase (PDE4) Activity:
The PDE4B1 (GB no. L20966) was a gift of Prof. M. Conti (Stanford University, USA). It was amplified from the original plasmid (pCMV5) via PCR with primers Rb18 (5′-[…]-3′) and Rb10 (5′-[…]-3′) and cloned into the pCRBac vector (Invitrogen, Groningen, NL).
The recombinant baculovirus was prepared by means of homologous recombination in SF9 insect cells. The expression plasmids were cotransfected with Baculo-Gold DNA (Pharmingen, Hamburg) using a standard protocol (Pharmingen, Hamburg). Wt virus-free recombinant virus supernatants were selected using plaque assay methods. After that, high-titre virus supernatants were prepared by amplifying 3 times. PDE4B1 was expressed in SF21 cells by infecting 2×10^6 cells/ml with an MOI (multiplicity of infection) between 1 and 10 in the serum-free medium Insect Express Sf9-S2 (PAA, Pasching, Austria). The cells were cultured at 28° C. for 48-72 hours, after which they were pelleted for 5-10 min at 1000×g and 4° C.
The SF21 insect cells were resuspended, at a concentration of approx. 10^7 cells/ml, in ice-cold (4° C.) homogenization buffer (20 mM Tris, pH 8.2, containing the following additions: 140 mM NaCl, 3.8 mM KCl, 1 mM EGTA, 1 mM MgCl2, 10 mM (3-mercaptoethanol, 2 mM benzamidine, 0.4 mM Pefablock, 10 μM leupeptin, 10 μM pepstatin A, 5 μM trypsin inhibitor) and disrupted by ultrasonication. The homogenate was then centrifuged for 10 min at 1000×g and the supernatant was stored at −80° C. until subsequent use (see below). The protein content was determined by the Bradford method (BioRad, Munich) using BSA as the standard.
PDE4B1 activity was inhibited by the compounds according to the present subject matter in a modified SPA (scintillation proximity assay) test, supplied by Amersham Biosciences (see procedural instructions “phosphodiesterase [3H]cAMP SPA enzyme assay, code TRKQ 7090”), carried out in 96-well microtitre plates (MTP's). The test volume is 100 μl and contains 20 mM Tris buffer (pH 7.4), 0.1 mg/ml of BSA, 5 mM Mg^2+, 0.5 μM cAMP (including about 50,000 cpm of [3H]cAMP), 1 μl of the respective substance dilution in DMSO and sufficient recombinant PDE (1000×g supernatant, see above) to ensure that 10-20% of the cAMP is converted under the said experimental conditions. […] After a preincubation of 5 min at 37° C., the reaction is started by adding the substrate (cAMP) and the assays are incubated for a further 15 min; after that, they are stopped by adding SPA beads (50 μl). In accordance with the manufacturer's instructions, the SPA beads had previously been resuspended in water, but were then diluted 1:3 (v/v) in water; the diluted solution also contains 3 mM IBMX to ensure a complete PDE activity stop. After the beads have been sedimented (>30 min), the MTP's are analyzed in commercially available luminescence detection devices. The corresponding IC50 values of the compounds for the inhibition of PDE4B1 activity are determined from the concentration-effect curves by means of non-linear regression.

For another test, the target named is T2, PDE5A1 (Homo sapiens, UniProt O76074).
T2 construct: from tissue; host or cells: human platelets from fresh donor blood (10,000 x g supernatant of sonicated lysate)
Put plainly: Inhibition of type 5 phosphodiesterase (PDE5) activity, modified SPA test with human platelet lysate. It counts as biochemical. The settings on record: 0.5 μM cGMP, read-out: PDE5A1 inhibitory values [measured as −log IC50 (mol/l)] (converted). In short, it runs like this:
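Enzyme source is lysate from human platelets (10,000 g supernatant). Compound preincubated 5 min at 37° C in Tris pH 7.4 containing 1 μM motapizone and 10 nM of a PDE2 inhibitor. Reaction started with 0.5 μM cGMP ([3H] tracer) and run 15 min; SPA read-out, IC50 by non-linear regression.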

T1 sequence (Q07343 whole entry): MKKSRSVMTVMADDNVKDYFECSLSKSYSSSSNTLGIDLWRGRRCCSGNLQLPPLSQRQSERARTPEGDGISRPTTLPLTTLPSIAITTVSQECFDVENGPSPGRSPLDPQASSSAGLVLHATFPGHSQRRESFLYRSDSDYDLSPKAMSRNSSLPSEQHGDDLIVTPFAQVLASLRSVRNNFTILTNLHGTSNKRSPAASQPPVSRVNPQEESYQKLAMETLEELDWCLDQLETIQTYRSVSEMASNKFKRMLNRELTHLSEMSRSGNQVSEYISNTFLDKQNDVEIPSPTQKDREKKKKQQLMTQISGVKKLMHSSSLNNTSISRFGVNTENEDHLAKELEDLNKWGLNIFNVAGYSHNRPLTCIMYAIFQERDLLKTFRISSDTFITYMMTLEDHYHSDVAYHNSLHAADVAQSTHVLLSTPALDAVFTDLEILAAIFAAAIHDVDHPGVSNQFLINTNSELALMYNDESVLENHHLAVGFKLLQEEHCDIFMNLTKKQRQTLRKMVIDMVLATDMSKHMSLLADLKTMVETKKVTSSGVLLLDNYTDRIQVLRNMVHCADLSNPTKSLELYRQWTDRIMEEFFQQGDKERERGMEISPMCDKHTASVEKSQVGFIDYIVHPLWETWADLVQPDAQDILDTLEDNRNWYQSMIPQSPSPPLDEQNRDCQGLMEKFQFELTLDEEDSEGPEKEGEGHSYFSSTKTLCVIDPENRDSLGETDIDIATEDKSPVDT

For the molecule `CCc1ccc(OCC2CC2)c(-c2ncnc3c(C(=O)N[C@H]4CC[C@@H](NC(=O)CO)CC4)c(C)[nH]c23)c1` [Example F95, 4-[2-(Cyclopropylmethoxy)-5-ethylphenyl]-N-{cis-4-[(hydroxyacetyl)amino]cyclohexyl}-6-methyl-5H-pyrrolo[3,2-d]pyrimidine-7-carboxamide], the IC50 on PDE4B1 is below 100 nM; on PDE5A1, below 1 nM.

On to `CC(=O)N[C@H]1CC[C@@H](NC(=O)c2c(C)[nH]c3c(-c4cc(C(F)(F)F)ccc4OCC4CC4)ncnc23)CC1` [Example E96, N-[cis-4-(acetylamino)cyclohexyl]-4-[2-(cyclopropylmethoxy)-5-(trifluoromethyl)phenyl]-6-methyl-5H-pyrrolo[3,2-d]pyrimidine-7-carboxamide], for which the IC50 was 100 to 1000 nM on PDE4B1 and below 1 nM at PDE5A1.

`CCC(=O)N1CCC(NC(=O)c2c(C)[nH]c3c(-c4cc(C(F)F)ccc4OCC4CC4)ncnc23)CC1` [Example P2, 4-[2-(Cyclopropylmethoxy)-5-(difluoromethyl)phenyl]-6-methyl-N-(1-propanoylpiperidin-4-yl)-5H-pyrrolo[3,2-d]pyrimidine-7-carboxamide]: the IC50 is below 100 nM at PDE4B1 and below 1 nM at PDE5A1.

On to `COCC(=O)N[C@H]1CC[C@H](NC(=O)c2c(C)[nH]c3c(-c4cc(OC)ccc4OCC4CC4)ncnc23)CC1` [Example E71, 4-[2-(Cyclopropylmethoxy)-5-methoxyphenyl]-N-{trans-4-[(methoxyacetyl)amino]cyclohexyl}-6-methyl-5H-pyrrolo[3,2-d]pyrimidine-7-carboxamide], for which the IC50 on PDE4B1 was 100 to 1000 nM; on PDE5A1 it was below 1 nM.

Turning to `Cc1ccc(OCC2CC2)c(-c2ncnc3c(C(=O)N[C@H]4CCC[C@H]4O)c(C)[nH]c23)c1` [Example E177, 4-[2-(Cyclopropylmethoxy)-5-methylphenyl]-N-[(1S,2R)-2-hydroxycyclopentyl]-6-methyl-5H-pyrrolo[3,2-d]pyrimidine-7-carboxamide], the results for the IC50 at PDE4B1 and on PDE5A1 were 100 to 1000 nM and 1 to 10 nM, respectively.

With `Cc1[nH]c2c(-c3cc(F)ccc3OCC3CC3)ncnc2c1C(=O)N[C@H]1CC[C@H](NC(=O)CO)CC1` [Example F25, 4-[2-(Cyclopropylmethoxy)-5-fluorophenyl]-N-[trans-4-(glycoloylamino)cyclohexyl]-6-methyl-5H-pyrrolo[3,2-d]pyrimidine-7-carboxamide], the IC50 was below 100 nM at PDE4B1 and below 1 nM at PDE5A1.

In the case of `COc1ccc(OCC2CC2)c(-c2ncnc3c(C(=O)N[C@H]4CC[C@@H](NC(C)=O)CC4)c(C)[nH]c23)c1` [Example E72, N-(cis-4-acetamidocyclohexyl)-4-[2-(cyclopropylmethoxy)-5-methoxyphenyl]-6-methyl-5H-pyrrolo[3,2-d]pyrimidine-7-carboxamide], the IC50 on PDE4B1 is 100 to 1000 nM; on PDE5A1, below 1 nM.

With `CCC(=O)N1CCC(NC(=O)c2c(C)[nH]c3c(-c4cc(C)ccc4OCC4CC4)ncnc23)CC1` [Example E82, 4-[2-(Cyclopropylmethoxy)-5-methylphenyl]-6-methyl-N-(1-propanoylpiperidin-4-yl)-5H-pyrrolo[3,2-d]pyrimidine-7-carboxamide], the IC50 was below 100 nM on PDE4B1 and below 1 nM at PDE5A1.

In the case of `COCC(=O)N[C@H]1CC[C@H](NC(=O)c2c(C)[nH]c3c(-c4cc(C)ccc4OCC4CC4)ncnc23)CC1` [Example E86, 4-[2-(Cyclopropylmethoxy)-5-methylphenyl]-N-{trans-4-[(methoxyacetyl)amino]cyclohexyl}-6-methyl-5H-pyrrolo[3,2-d]pyrimidine-7-carboxamide], the figures for the IC50 at PDE4B1 and on PDE5A1 were below 100 nM and below 1 nM, respectively.

In the case of `CCC(=O)N1C[C@@H](O)[C@H](NC(=O)c2c(C)[nH]c3c(-c4cc(CC)ccc4OCC4CC4)ncnc23)C1` (relative stereo) [Example E155, 4-[2-(Cyclopropylmethoxy)-5-ethylphenyl]-N-[(3R*,4R*)-4-hydroxy-1-propanoylpyrrolidin-3-yl]-6-methyl-5H-pyrrolo[3,2-d]pyrimidine-7-carboxamide], the values for the IC50 at PDE4B1 and at PDE5A1 were 100 to 1000 nM and below 1 nM, respectively.

Take `CC(=O)N[C@H]1CC[C@H](NC(=O)c2c(C)[nH]c3c(-c4cc(C(F)F)ccc4OCC4CC4)ncnc23)C1` [Example P89, N-[(1S,3S)-3-(Acetylamino)cyclopentyl]-4-[2-(cyclopropylmethoxy)-5-(difluoromethyl)phenyl]-6-methyl-5H-pyrrolo[3,2-d]pyrimidine-7-carboxamide]: the IC50 was below 100 nM on PDE4B1 and below 1 nM on PDE5A1.

Regarding `CC(=O)N[C@@H]1CC[C@@H](NC(=O)c2c(C)[nH]c3c(-c4cc(C(F)F)ccc4OCC4CC4)ncnc23)[C@H](F)C1` (relative stereo) [Example P159, N-[(1R*,2R*,4R*)-4-(Acetylamino)-2-fluorocyclohexyl]-4-[2-(cyclopropylmethoxy)-5-(difluoromethyl)phenyl]-6-methyl-5H-pyrrolo[3,2-d]pyrimidine-7-carboxamide], the IC50 on PDE4B1 is below 100 nM; at PDE5A1 it was below 1 nM.

With `CCC(=O)N[C@H]1CC[C@@H](NC(=O)c2c(C)[nH]c3c(-c4cc(C)ccc4OCC4CC4)ncnc23)CC1` [Example E88, 4-[2-(Cyclopropylmethoxy)-5-methylphenyl]-6-methyl-N-[cis-4-(propanoylamino)cyclohexyl]-5H-pyrrolo[3,2-d]pyrimidine-7-carboxamide], the IC50 at PDE4B1 is below 100 nM; at PDE5A1 it was below 1 nM.

Regarding `COCC(=O)N1CCC(NC(=O)c2c(C)[nH]c3c(-c4cc(C(F)(F)F)ccc4OCC4CC4)ncnc23)CC1` [Example E92, 4-[2-(Cyclopropylmethoxy)-5-(trifluoromethyl)phenyl]-N-[1-(methoxyacetyl)piperidin-4-yl]-6-methyl-5H-pyrrolo[3,2-d]pyrimidine-7-carboxamide], the IC50 is below 100 nM on PDE4B1 and below 1 nM on PDE5A1.

Turning to `Cc1[nH]c2c(-c3cc(C(F)(F)F)ccc3OCC3CC3)ncnc2c1C(=O)NC1CCN(C(=O)[C@H](C)O)CC1` [Example F58, 4-[2-(Cyclopropylmethoxy)-5-(trifluoromethyl)phenyl]-N-{1-[(2S)-2-hydroxypropanoyl]piperidin-4-yl}-6-methyl-5H-pyrrolo[3,2-d]pyrimidine-7-carboxamide], the IC50 on PDE4B1 is 100 to 1000 nM; on PDE5A1 it was below 1 nM.

`CCOC(=O)N[C@H]1CC[C@H](NC(=O)c2c(C)[nH]c3c(-c4cc(F)ccc4OCC4CC4)ncnc23)CC1` [Example E44, Ethyl {trans-4-[({4-[2-(cyclopropylmethoxy)-5-fluorophenyl]-6-methyl-5H-pyrrolo[3,2-d]pyrimidin-7-yl}carbonyl)amino]cyclohexyl}carbamate]: the IC50 at PDE4B1 is below 100 nM; at PDE5A1 it was below 1 nM.

`COc1ccc(OCC2CC2)c(-c2ncnc3c(C(=O)NC4CCC(NC(=O)C(C)O)CC4)c(C)[nH]c23)c1` (stereo not drawn) [Example F44, 4-[2-(Cyclopropylmethoxy)-5-methoxyphenyl]-N-(trans-4-{[(25)-2-hydroxypropanoyl]amino}cyclohexyl)-6-methyl-5H-pyrrolo[3,2-d]pyrimidine-7-carboxamide]: the IC50 at PDE4B1 is 100 to 1000 nM; at PDE5A1, below 1 nM.
